Assay results taken from patent US20260250278A1, “PHENYL-SUBSTITUTED DIHYDRONAPHTHYRIDINE COMPOUNDS, AND PREPARATION AND USE THEREOF” (SUZHONG PHARMACEUTICAL GROUP CO., LTD., priority 2022, published 2026).

Target: T1, mineralocorticoid receptor (MR) (Homo sapiens, UniProt P08235)
T1 construct: expressed in transfected cells
T1 sequence (P08235 726-964 limits assumed): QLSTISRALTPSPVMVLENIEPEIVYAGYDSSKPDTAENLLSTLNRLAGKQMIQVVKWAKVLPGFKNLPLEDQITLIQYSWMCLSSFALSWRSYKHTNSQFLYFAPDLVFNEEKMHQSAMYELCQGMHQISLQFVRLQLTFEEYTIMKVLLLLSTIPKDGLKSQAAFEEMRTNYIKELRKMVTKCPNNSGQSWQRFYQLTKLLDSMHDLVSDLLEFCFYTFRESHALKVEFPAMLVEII
Assay: MR Gal4-LBD luciferase reporter gene assay in HEK293T cells (antagonism of 0.8 nM aldosterone)
Assay type: cell-based
Text: By the characteristic of chemiluminescence reaction produced by combination of luciferase and substrate, a Gal4 DNA binding domain (DBD) fused plasmid containing a mineralocorticoid receptor (MR) ligand binding domain (LBD) and a firefly luciferase reporter gene plasmid under the control of Gal4 UAS (upstream activation sequence) were transfected into human embryonic kidney cells (HEK293). Changes of […] were judged by a level of firefly luciferase activity.
All compounds were dissolved in DMSO to prepare a 25 mM stock solution, and stored in a refrigerator at −20° C.
• 1) A compound to be tested was subjected to 3-times gradient dilution with the DMSO, with 10 concentration gradients and an initial concentration of 10 mM. • 2) A positive compound (Finerenone) was subjected to 3-times gradient dilution with the DMSO, with 10 concentration gradients and an initial concentration of 1 mM. • 3) 1000× positive control (1 mM, Finerenone) and 1000× negative control (100% DMSO) were prepared. • 4) A compound plate was sealed and shaken for 5 minutes.
• 5) All cells were cultured by ATCC standard operation, and HEK293T was experimented in an exponential growth phase. • 6) A culture medium supernatant was gently discarded. The cells were washed with PBS twice.
(3) The cells were digested with pancreatin digestive juice, the digestion was stopped with a complete culture solution, and then the cells were collected and counted.
(4) 6×10^6 HEK293T cells were inoculated into a 100 mm cell culture dish.
(5) The culture dish inoculated with the cells was cultured in a 5% CO2 incubator at 37° C. for 16 hours overnight.
• 1) Lipofectamine® 3000&P3000 transfection reagents were placed at room temperature. • 2) The Lipofectamine® 3000 reagent was added into an Opti-MEM™ culture medium, and meanwhile, the P3000, the plasmid and the Opti-MEM™ culture medium were added into another tube, taking care not to touch the tube wall. • 3) The mixture was mixed evenly by a pipette, and allowed to stand at room temperature for 5 minutes. • 4) The plasmid was added into the diluted transfection reagent, mixed evenly by a pipette, and allowed to stand at room temperature for 20 minutes. • 5) The transfection reagent mixed with the plasmid was added into a […] cell culture dish. • 6) The culture dish was cultured in a 5% CO2 incubator at 37° C. for 5 hours to 6 hours.
• 1) 25 nL of diluted compound was transferred to a cell culture plate with Echo655. • 2) The cells (referring to step 1.3) were inoculated into a 384 cell culture plate, with 17,000 cells, 25 μL of phenol red-free DMEM culture medium containing 5% CFBS and 0.8 nM Aldosteron per well.
(3) The cell culture plate was cultured in a 5% CO2 incubator at 37° C. for 18 hours to 20 hours overnight.
• 1) A Britelite plus detection reagent was placed at room temperature. 2) The 384 cell plate was placed at room temperature. • 3) 25 μL of Britelite plus detection reagent was added into each well of the cell culture plate. • 4) A luminescence was detected with Envision.
• 1) a firefly luciferase signal was obtained by reading the Luminescence to calculate an inhibition rate; • 2) % inhibition rate=100−[(RLU compound−avgRLU positive control)/(RLU negative control−avgRLU positive control)×100%, wherein the avgRLU positive control was an average value of Luminescences of all positive control wells in the whole plate; the avgRLU negative control was an average value of Luminescences of all negative control wells in the whole plate; and the RLU compound was Luminescence values of compounds to be tested with different concentrations; and • 3) IC50 of the compound was calculated by Graphpad8.0 Drawing software.

IC50 [nM]	Compound
192	CCOc1ncc(C)c2c1C(c1ccc(C#N)cc1OC)C(c1ncco1)=C(C)N2 (stereo not drawn) [Example 1]
48.9	CCOc1ncc(C)c2c1C(c1ccc(C#N)cc1OC)C(c1nnco1)=C(C)N2 (stereo not drawn) [Example 2, 4-(5-ethoxy-2,8-dimethyl-3-(1,3,4-oxadiazole-2-yl)-1,4-dihydro-1,6-naphthyridine-4-yl)-3-methoxybenzonitrile]
113	CCOc1ncc(C)c2c1C(c1ccc(C#N)cc1OC)C(c1nnc(C)o1)=C(C)N2 (stereo not drawn) [Example 3, 4-(5-ethoxy-2,8-dimethyl-3-(5-methyl-1,3,4-oxadiazole-2-yl)-1,4-dihydro-1,6-naphthyridine-4-yl)-3-methoxybenzonitrile]
111	CCOc1nc2c(c3c1C(c1ccc(C#N)cc1OC)C(C(N)=O)=C(C)N3)CCC2 (stereo not drawn) [Example 4, 4-(4-cyano-2-methoxyphenyl)-5-ethoxy-2-methyl-4,7,8,9-tetrahydrocyclopentane-1H-cyclopentamide]
235	COc1cc(C#N)ccc1C1C(C#N)=C(C)Nc2c1ccc1c2CCC1 (stereo not drawn) [Example 5, 4-(4-cyano-2-methoxyphenyl)-2-methyl-4,7,8,9-tetrahydrocyclopentane-3-carbonitrile]
21.6	CCOc1ncc(C)c2c1C(c1ccc(C#N)c3c1OCCC3)C(C(N)=O)=C(C)N2 (stereo not drawn) [Example 6, 4-(5-cyanored-8-yl)-5-ethoxy-2,8-dimethyl-1,4-dihydro-1,6-naphthyridine-3-formamide]
322	COc1cc(C#N)ccc1C1C(C#N)=C(C)Nc2c(C)cn3nccc3c21 (stereo not drawn) [Example 7, 10-(4-cyano-2-methoxyphenyl)-6,8-dimethyl-7H,10H-pyrazolo[3,2-f]1,6-naphthyridine-9-carbonitrile]
20.4	COc1cc(C#N)ccc1C1C(C#N)=C(C)Nc2sc3ccccc3c21 (stereo not drawn) [Example 8, 4-(4-cyano-2-methoxyphenyl)-2-methyl-1,4-dihydrobenzo[4,5]thieno[2,3-b]pyridine-3-carbonitrile]
661	CCOc1nn(C)c2c1C(c1ccc(C#N)cc1OC)C(C#N)=C(C)N2 (stereo not drawn) [Example 9, 4-(4-cyano-2-methoxyphenyl)-3-ethoxy-1,6-dimethyl-4,7-dihydropyrazolo[3,4-b]pyridine-5-carbonitrile]
348	COc1cc(C#N)ccc1C1C(C#N)=C(C)Nc2c(C)cc3nncn3c21 (stereo not drawn) [Example 10, 9-(4-cyano-2-methoxyphenyl)-5,7-dimethyl-6,9-dihydro[1,2,4]triazolo[4,3-a][1,5]naphthyridine-8-carbonitrile]
92.1	CCOc1ncc(C)c2c1C(c1ccc(C#N)c3c1OCC3)C(C(N)=O)=C(C)N2 (stereo not drawn) [Example 11, 4-(4-cyano-2,3-dihydrobenzofuran-7-yl)-5-ethoxy-2,8-dimethyl-1,4-dihydro-1,6-naphthyridine-3-formamide]
215	CCOc1nc2ccccc2c2c1C(c1ccc(C#N)cc1OC)C(C#N)=C(C)N2 (stereo not drawn) [Example 12, 4-(4-cyano-2-methoxyphenyl)-5-ethoxy-2-methyl-1H,4H-benzo[h]-1,6-naphthyridine-3-carbonitrile]
232	CCOc1nc2ccsc2c2c1C(c1ccc(C#N)cc1OC)C(C(N)=O)=C(C)N2 (stereo not drawn) [Example 13, 6-(4-cyano-2-methoxyphenyl)-5-ethoxy-8-methyl-6,9-dihydrothieno[3,2-h][1,6]naphthyridine-7-formamide]
46.2	CCOc1ncc(C)c2c1C(c1ccc(C#N)c3c1OCO3)C(C(N)=O)=C(C)N2 (stereo not drawn) [Example 14, 4-(7-cyanobenzo[d][1,3]dioxacyclopenten-4-yl)-5-ethoxy-2,8-dimethyl-1,4-dihydro-1,6-naphthyridine-3-formamide]
34.1	CC1=C(C(N)=O)C(c2ccc(C#N)c3c2OCC3)c2c(OCC3CC(F)(F)C3)ncc(C)c2N1 (stereo not drawn) [Example 16]
19.2	CC1=C(C(N)=O)C(c2ccc(C#N)c3c2OCC3)c2c(OC(F)F)ncc(C)c2N1 (stereo not drawn) [Example 17, 4-(4-cyano-2,3-dihydrobenzofuran-7-yl)-5-(difluoromethoxy)-2,8-dimethyl-1,4-dihydro-1,6-naphthyridine-3-formamide]
28.5	CC1=C(C(N)=O)C(c2ccc(C#N)c3c2OCC3)c2c(OC3CC3)ncc(C)c2N1 (stereo not drawn) [Example 18, 4-(4-cyano-2,3-dihydrobenzofuran-7-yl)-5-cyclopropoxy-2,8-dimethyl-1,4-dihydro-1,6-naphthyridine-3-formamide]
27.7	CC1=C(C(N)=O)C(c2ccc(C#N)c3c2OCC3)c2c(OCC3CC3)ncc(C)c2N1 (stereo not drawn) [Example 19, 4-cyano-2,3-dihydrobenzofuran-7-yl-5-cyclopropylmethoxy-2,8-dimethyl-1,4-dihydro-1,6-naphthyridine-3-formamide]
15.2	CC1=C(C(N)=O)C(c2ccc(C#N)c3c2OCC3)c2c(OC(C)C)ncc(C)c2N1 (stereo not drawn) [Example 20, 4-(4-cyano-2,3-dihydro-1-benzofuran-7-yl)-5-isopropoxy-2,8-dimethyl-1,4-dihydro-1,6-naphthyridine-3-formamide]
8.7	CC1=C(C(N)=O)C(c2ccc(C#N)c3c2OCC3)c2c(OCC3CCC3)ncc(C)c2N1 (stereo not drawn) [Example 22]
24.8	CC1=C(C(N)=O)C(c2ccc(C#N)c3c2OCC3)c2c(OC(F)(F)F)ncc(C)c2N1 (stereo not drawn) [Example 23, 4-cyano-2,3-dihydrobenzofuran-7-yl-2,8-dimethyl-5-trifluoromethoxy-1,4-dihydro-1,6-naphthyridine-3-formamide]
7.9	CC1=C(C(N)=O)C(c2ccc(C#N)c3c2OCC3)c2c(OCC(F)(F)F)ncc(C)c2N1 (stereo not drawn) [Example 24, 4-cyano-2,3-dihydrobenzofuran-7-yl-2,8-dimethyl-5-(2,2,2-trifluoroethoxy)-1,4-dihydro-1,6-naphthyridine-3-formamide]
37.5	CCOc1ncc(C)c2c1C(c1ccc(C#N)c3c1OCCO3)C(C(N)=O)=C(C)N2 (stereo not drawn) [Example 25, 4-(8-cyano-2,3-dihydrobenzo[b][1,4]dioxin-5-yl)-5-ethoxy-2,8-dimethyl-1,4-dihydro-1,6-naphthyridine-3-formamide]
8	CCOc1ncc(C)c2c1[C@H](c1ccc(C#N)c3c1OCCC3)C(C(N)=O)=C(C)N2 [Example 32, (S)-4-(5-cyanored-8-yl)-5-ethoxy-2,8-dimethyl-1,4-dihydro-1,6-naphthyridine-3-formamide]
12.7	CCOc1ncc(C)c2c1[C@H](c1ccc(C#N)c3c1OCCO3)C(C(N)=O)=C(C)N2 [Example 40, (S)-4-(8-cyano-2,3-dihydrobenzo[b][1,4]dioxin-5-yl)-5-ethoxy-2,8-dimethyl-1,4-dihydro-1,6-naphthyridine-3-formamide]

Compound	IC50 [nM]
CC1=C(C(N)=O)C(c2ccc(C#N)c3c2OCC3)c2c(OC3CCCC3)ncc(C)c2N1 (stereo not drawn) [Example 15, 4-(4-cyano-2,3-dihydrobenzofuran-7-yl)-5-cyclopentoxy-2,8-dimethyl-1,4-dihydro-1,6-naphthyridine-3-formamide]	18.2
CC1=C(C(N)=O)C(c2ccc(C#N)c3c2OCC3)c2c(OC3CCC3)ncc(C)c2N1 (stereo not drawn) [Example 21, 4-(4-cyano-2,3-dihydrobenzofuran-7-yl)-5-cyclobutoxy-2,8-dimethyl-1,4-dihydro-1,6-naphthyridine-3-formamide]	20.2
